Experimental data as given in BindingDB's records for doi:10.1016/j.bmc.2019.07.003 (Tokyo Medical and Dental University, 2019).

Assay: Transactivation of VDR in human Macrophage-like cell assessed as cell differentiation measured after 4 days by NBT dye-based assay

- EC50: 1200 nM
SMILES: C[C@H](CCC(=O)O)[C@H]1CC[C@H]2[C@@H]3CC[C@@H]4C[C@H](OS(C)(=O)=O)CC[C@]4(C)[C@H]3CC[C@]12C
